This is an account of results in ChEMBL document CHEMBL4190379 (Bioorg Med Chem Lett, 2018).

System in one data set: not listed separately
As to the kind of experiment: Intrinsic unbound clearance in human liver microsomes. The format is ADME, microsome.
Settings: not given
Background: Liver microsomes are a subcellular fraction often used to study metabolism.
As to `Cn1cc2c3c(c[nH]c(=O)c31)-c1cc(CS(C)(=O)=O)ccc1N(c1ccc(F)cc1)C2`, the CL free was 91.7 mL/min/kg.

Consider `Cn1cc2c3c(c[nH]c3c1=O)CN(c1ccccn1)c1ccc(CS(C)(=O)=O)cc1-2`, for which the CL free was found to be 50 mL/min/kg.

In the case of `Cn1cc2c3c(c[nH]c3c1=O)CN(c1ccc(F)cc1F)c1ccc(CS(C)(=O)=O)cc1-2`, the CL free is < 51.7 mL/min/kg.

In another data set the target is Bromodomain adjacent to zinc finger domain protein 2B (Homo sapiens) (UniProt Q9UIF8). As to the kind of experiment: Binding affinity to human BAZ2B expressed in bacterial system assessed as remaining binding level at 1 uM by BROMOscan assay relative to control.
Bromodomain adjacent to zinc finger domain protein 2B (Homo sapiens), sequence (Q9UIF8 whole entry, the tested form may be a part): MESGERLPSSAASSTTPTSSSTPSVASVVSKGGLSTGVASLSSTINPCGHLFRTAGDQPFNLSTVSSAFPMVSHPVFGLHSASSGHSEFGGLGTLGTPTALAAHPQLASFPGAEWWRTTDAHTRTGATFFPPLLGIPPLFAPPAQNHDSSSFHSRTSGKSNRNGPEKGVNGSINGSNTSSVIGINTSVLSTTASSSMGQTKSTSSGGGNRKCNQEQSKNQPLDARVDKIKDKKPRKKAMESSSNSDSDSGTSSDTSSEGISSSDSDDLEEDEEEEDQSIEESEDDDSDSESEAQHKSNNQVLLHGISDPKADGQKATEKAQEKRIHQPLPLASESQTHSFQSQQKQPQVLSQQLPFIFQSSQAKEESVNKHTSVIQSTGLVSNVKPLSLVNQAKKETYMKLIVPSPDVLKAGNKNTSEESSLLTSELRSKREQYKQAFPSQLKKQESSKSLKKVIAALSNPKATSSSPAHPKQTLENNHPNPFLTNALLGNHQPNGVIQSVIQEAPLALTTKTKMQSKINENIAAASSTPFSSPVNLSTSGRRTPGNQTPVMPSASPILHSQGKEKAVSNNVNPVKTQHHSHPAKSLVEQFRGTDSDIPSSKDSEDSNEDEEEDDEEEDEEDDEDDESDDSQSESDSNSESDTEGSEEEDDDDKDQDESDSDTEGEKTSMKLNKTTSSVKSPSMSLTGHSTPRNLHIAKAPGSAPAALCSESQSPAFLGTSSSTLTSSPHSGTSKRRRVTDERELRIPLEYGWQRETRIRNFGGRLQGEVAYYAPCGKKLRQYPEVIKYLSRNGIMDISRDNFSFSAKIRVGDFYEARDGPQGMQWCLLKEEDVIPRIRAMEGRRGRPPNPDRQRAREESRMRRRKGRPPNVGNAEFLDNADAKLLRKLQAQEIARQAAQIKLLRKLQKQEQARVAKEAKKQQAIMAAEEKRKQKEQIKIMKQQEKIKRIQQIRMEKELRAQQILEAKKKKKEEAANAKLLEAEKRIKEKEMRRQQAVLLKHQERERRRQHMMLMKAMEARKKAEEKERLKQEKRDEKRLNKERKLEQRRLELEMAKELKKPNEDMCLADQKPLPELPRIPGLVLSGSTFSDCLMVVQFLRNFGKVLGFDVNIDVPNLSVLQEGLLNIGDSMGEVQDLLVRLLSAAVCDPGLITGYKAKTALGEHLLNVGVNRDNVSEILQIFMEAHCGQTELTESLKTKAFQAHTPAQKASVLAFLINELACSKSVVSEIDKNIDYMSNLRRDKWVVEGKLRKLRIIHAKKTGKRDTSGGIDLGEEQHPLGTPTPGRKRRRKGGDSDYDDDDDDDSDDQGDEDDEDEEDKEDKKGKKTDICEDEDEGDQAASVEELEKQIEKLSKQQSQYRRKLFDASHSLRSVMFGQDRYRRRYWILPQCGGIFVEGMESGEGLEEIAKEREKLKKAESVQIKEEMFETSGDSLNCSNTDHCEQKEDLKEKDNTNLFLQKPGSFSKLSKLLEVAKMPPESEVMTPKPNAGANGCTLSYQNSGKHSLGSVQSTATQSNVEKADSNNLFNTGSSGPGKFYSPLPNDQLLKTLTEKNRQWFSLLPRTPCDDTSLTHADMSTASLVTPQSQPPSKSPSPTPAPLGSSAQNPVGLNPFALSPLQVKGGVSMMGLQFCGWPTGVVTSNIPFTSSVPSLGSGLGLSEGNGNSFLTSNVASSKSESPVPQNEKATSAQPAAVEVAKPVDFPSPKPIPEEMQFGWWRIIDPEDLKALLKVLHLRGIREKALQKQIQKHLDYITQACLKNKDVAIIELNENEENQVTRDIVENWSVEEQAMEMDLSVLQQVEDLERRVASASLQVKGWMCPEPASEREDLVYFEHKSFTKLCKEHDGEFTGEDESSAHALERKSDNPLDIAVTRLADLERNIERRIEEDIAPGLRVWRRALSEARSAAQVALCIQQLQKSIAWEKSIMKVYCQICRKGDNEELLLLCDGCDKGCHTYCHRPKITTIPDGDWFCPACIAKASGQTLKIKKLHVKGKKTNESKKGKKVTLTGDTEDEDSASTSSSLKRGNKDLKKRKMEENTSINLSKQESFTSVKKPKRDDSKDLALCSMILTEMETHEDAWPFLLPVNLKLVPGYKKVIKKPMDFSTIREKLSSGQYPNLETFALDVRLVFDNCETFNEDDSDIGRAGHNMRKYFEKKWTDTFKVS
Settings: not given
Consider `Cn1cc2c3c(c[nH]c(=O)c31)-c1cc(CS(C)(=O)=O)ccc1N(c1ccc(F)cc1)C2`, for which the Activity worked out at 100%.

For the compound `Cn1cc2c3c(c[nH]c3c1=O)CN(c1ccccn1)c1ccc(CS(C)(=O)=O)cc1-2`, the Activity stood at 72%.

In the case of `Cn1cc2c3c(c[nH]c3c1=O)CN(c1ccc(F)cc1F)c1ccc(CS(C)(=O)=O)cc1-2`, the Activity stood at 70%.

For the next data set, the target named is Bromodomain-containing protein 4 (Homo sapiens, UniProt O60885). As to the kind of experiment: Binding affinity to BRD4 bromodomain 2 (E352 to M457 amino acids) (unknown origin) using Alexa647-labeled BET-inhibitor as fluorescent probe by bromodomain TR-FRET binding assay.
Settings: not given
(In TR-FRET formats the signal depends on donor and acceptor labels being close together.)
On to `Cn1cc2c3c(c[nH]c(=O)c31)-c1cc(CS(C)(=O)=O)ccc1N(c1ccc(F)cc1)C2`, for which the inhibitory constant (Ki) (in general, a measure of affinity in units of concentration, obtained from inhibition or displacement) was determined as 2.5 nM.

Compound `Cn1cc2c3c(c[nH]c3c1=O)CN(c1ccccn1)c1ccc(CS(C)(=O)=O)cc1-2` displayed an inhibitory constant (Ki) of 1.5 nM.

Consider `Cn1cc2c3c(c[nH]c3c1=O)CN(c1ccc(F)cc1F)c1ccc(CS(C)(=O)=O)cc1-2`, for which the affinity, expressed as Ki, was 0.73 nM.

In the next data set the target is T1, Transcription intermediary factor 1-alpha (Homo sapiens) (UniProt O15164).
T1 sequence (whole entry): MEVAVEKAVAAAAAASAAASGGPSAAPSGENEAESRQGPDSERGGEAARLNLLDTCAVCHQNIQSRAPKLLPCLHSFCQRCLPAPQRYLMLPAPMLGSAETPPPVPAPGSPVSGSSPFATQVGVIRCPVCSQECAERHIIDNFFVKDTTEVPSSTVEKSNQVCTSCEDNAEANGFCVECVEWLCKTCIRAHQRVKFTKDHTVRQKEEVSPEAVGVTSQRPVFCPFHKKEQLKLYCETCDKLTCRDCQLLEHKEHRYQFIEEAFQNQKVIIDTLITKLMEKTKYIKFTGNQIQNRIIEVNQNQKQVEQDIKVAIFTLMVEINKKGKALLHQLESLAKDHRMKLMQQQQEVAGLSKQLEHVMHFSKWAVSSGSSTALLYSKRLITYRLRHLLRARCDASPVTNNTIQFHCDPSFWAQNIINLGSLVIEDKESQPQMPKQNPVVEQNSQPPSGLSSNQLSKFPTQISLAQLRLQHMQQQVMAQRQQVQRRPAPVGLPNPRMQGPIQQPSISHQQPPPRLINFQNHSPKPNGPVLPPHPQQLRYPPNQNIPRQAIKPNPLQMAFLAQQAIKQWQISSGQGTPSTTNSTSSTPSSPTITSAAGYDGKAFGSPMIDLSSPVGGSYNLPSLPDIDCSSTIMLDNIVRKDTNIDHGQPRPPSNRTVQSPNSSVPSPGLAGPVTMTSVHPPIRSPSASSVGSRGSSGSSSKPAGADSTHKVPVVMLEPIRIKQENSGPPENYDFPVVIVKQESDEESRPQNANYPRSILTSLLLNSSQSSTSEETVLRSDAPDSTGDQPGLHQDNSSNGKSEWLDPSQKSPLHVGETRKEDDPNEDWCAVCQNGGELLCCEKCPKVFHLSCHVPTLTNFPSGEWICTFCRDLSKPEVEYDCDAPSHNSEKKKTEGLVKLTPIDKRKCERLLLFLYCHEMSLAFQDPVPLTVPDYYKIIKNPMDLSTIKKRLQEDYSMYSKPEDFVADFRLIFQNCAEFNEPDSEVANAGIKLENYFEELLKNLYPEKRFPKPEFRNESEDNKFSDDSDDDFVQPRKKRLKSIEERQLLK
As to the kind of experiment: Binding affinity to human TRIM24-phd-bromo expressed in bacterial system assessed as remaining binding level at 1 uM by BROMOscan assay relative to control.
Settings: not given
As to `Cn1cc2c3c(c[nH]c(=O)c31)-c1cc(CS(C)(=O)=O)ccc1N(c1ccc(F)cc1)C2`, the Activity was 90%.

Consider `Cn1cc2c3c(c[nH]c3c1=O)CN(c1ccccn1)c1ccc(CS(C)(=O)=O)cc1-2`, for which the Activity came to 54%.

With `Cn1cc2c3c(c[nH]c3c1=O)CN(c1ccc(F)cc1F)c1ccc(CS(C)(=O)=O)cc1-2`, the Activity was determined as 67%.

The target in the next data set is T2, Peregrin (Homo sapiens) (UniProt P55201).
T2 sequence (whole entry): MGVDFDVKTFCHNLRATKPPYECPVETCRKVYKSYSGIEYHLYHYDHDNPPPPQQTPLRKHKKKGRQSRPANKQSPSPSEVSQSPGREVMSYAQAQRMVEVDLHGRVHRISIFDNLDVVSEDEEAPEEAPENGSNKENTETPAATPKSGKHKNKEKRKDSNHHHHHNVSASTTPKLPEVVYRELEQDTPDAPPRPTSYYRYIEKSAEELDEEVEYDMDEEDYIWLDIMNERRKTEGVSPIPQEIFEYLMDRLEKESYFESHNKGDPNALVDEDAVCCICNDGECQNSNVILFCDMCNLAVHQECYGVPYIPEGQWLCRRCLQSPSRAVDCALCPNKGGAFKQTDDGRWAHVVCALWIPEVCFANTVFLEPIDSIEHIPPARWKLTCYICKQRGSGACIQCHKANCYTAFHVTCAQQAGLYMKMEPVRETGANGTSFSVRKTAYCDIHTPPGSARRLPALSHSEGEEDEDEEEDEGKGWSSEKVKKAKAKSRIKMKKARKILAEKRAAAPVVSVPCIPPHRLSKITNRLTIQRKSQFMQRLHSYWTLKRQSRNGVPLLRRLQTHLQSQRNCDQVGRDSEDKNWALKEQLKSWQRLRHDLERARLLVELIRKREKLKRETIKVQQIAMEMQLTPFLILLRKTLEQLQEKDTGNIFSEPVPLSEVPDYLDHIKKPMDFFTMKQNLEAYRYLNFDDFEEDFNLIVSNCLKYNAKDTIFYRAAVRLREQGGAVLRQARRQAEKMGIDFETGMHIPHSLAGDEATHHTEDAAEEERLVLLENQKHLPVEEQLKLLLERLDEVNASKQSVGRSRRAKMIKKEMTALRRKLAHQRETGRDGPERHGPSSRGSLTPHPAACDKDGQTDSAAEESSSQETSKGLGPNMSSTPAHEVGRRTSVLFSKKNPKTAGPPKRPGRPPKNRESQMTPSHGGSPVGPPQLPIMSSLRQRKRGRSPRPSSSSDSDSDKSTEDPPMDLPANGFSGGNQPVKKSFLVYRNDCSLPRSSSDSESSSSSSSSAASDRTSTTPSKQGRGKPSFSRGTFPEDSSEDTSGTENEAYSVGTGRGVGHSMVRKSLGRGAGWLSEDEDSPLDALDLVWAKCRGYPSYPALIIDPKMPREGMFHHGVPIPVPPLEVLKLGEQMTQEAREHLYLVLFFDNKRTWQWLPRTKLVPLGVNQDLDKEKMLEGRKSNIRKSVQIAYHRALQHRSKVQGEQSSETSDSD
Kind of data set: Binding affinity to human BRPF1 expressed in bacterial system assessed as remaining binding level at 1 uM by BROMOscan assay relative to control.
Settings: not given
As to `Cn1cc2c3c(c[nH]c(=O)c31)-c1cc(CS(C)(=O)=O)ccc1N(c1ccc(F)cc1)C2`, the Activity is 69%.

With `Cn1cc2c3c(c[nH]c3c1=O)CN(c1ccccn1)c1ccc(CS(C)(=O)=O)cc1-2`, the Activity amounted to 1.2%.

As to `Cn1cc2c3c(c[nH]c3c1=O)CN(c1ccc(F)cc1F)c1ccc(CS(C)(=O)=O)cc1-2`, the Activity turned out to be 14%.

Another data set deals with Mus musculus. As to the kind of experiment: Unbound clearance in mouse at 10 mg/kg, po. The data set is classed as ADME, organism-based. Particulars: in vivo.
With `Cn1cc2c3c(c[nH]c(=O)c31)-c1cc(CS(C)(=O)=O)ccc1N(c1ccc(F)cc1)C2`, the CL free is 1300 mL/min/kg.

As for `Cn1cc2c3c(c[nH]c3c1=O)CN(c1ccccn1)c1ccc(CS(C)(=O)=O)cc1-2`, the CL free was found to be 157 mL/min/kg.

`Cn1cc2c3c(c[nH]c3c1=O)CN(c1ccc(F)cc1F)c1ccc(CS(C)(=O)=O)cc1-2` registered a CL free of 750 mL/min/kg.

The target of the next data set is Histone acetyltransferase p300 (Homo sapiens) (UniProt Q09472). As to the kind of experiment: Binding affinity to human EP300 expressed in bacterial system assessed as remaining binding level at 1 uM by BROMOscan assay relative to control.
Histone acetyltransferase p300 (Homo sapiens), sequence (Q09472 whole entry): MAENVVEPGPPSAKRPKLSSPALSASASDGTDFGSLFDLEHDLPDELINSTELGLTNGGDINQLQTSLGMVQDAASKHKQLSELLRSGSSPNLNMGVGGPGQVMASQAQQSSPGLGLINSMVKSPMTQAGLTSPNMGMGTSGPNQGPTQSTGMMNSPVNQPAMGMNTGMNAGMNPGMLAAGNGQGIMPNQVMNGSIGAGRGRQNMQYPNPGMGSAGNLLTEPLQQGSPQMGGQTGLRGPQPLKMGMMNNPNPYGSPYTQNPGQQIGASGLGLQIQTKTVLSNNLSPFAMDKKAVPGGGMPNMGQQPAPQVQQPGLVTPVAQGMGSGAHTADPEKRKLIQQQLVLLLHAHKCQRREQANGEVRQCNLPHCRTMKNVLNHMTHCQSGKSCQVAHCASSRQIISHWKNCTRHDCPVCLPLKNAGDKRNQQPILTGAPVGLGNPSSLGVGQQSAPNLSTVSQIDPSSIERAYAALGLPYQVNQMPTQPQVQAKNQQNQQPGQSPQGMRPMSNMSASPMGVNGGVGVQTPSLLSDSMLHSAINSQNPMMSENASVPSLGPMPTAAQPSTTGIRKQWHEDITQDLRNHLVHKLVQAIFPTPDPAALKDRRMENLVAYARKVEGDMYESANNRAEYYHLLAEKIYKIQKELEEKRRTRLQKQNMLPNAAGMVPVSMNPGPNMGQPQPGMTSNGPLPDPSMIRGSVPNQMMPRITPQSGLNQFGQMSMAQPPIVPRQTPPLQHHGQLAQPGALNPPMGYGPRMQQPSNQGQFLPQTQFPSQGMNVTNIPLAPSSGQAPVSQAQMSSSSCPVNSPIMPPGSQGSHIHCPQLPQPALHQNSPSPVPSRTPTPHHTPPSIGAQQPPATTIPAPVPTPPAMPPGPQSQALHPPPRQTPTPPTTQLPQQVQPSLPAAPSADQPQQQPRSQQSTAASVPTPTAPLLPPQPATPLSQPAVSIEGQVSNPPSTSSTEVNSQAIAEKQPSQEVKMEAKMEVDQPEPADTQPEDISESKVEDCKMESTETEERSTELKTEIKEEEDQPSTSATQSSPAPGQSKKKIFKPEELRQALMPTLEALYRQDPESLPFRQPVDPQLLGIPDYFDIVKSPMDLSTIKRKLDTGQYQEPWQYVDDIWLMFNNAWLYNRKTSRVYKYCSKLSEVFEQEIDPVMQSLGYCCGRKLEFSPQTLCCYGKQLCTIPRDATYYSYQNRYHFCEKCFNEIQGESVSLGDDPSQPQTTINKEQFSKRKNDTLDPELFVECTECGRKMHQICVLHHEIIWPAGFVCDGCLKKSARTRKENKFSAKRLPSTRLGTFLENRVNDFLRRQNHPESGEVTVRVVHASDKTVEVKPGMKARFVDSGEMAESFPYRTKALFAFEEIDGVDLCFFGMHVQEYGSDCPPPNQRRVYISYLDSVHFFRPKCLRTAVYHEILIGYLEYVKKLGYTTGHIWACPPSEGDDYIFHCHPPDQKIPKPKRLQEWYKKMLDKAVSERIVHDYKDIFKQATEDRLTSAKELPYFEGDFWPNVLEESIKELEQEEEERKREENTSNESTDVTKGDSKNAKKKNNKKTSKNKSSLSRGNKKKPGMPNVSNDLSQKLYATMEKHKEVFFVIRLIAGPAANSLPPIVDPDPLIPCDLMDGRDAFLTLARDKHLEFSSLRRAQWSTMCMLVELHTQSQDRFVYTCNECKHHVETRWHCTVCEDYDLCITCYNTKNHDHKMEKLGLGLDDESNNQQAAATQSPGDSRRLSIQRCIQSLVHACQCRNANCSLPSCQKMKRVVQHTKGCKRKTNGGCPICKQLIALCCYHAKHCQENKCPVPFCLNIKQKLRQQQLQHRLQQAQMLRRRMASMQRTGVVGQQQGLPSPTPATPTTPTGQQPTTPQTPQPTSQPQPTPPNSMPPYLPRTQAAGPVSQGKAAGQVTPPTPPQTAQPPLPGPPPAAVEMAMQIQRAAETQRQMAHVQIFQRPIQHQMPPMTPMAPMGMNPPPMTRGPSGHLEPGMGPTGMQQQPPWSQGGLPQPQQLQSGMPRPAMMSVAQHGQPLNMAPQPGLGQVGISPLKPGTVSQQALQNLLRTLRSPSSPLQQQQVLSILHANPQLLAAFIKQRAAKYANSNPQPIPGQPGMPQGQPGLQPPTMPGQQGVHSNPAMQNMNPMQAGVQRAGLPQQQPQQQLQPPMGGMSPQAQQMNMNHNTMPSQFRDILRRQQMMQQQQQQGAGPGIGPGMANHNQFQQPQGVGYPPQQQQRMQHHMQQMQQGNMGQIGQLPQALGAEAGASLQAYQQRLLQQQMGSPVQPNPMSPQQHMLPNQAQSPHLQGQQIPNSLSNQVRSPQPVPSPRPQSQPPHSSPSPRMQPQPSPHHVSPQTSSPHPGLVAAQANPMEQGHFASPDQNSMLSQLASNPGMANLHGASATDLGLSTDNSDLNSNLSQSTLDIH
Settings: not given
Regarding `Cn1cc2c3c(c[nH]c(=O)c31)-c1cc(CS(C)(=O)=O)ccc1N(c1ccc(F)cc1)C2`, the Activity came to 42%.

In the case of `Cn1cc2c3c(c[nH]c3c1=O)CN(c1ccccn1)c1ccc(CS(C)(=O)=O)cc1-2`, the Activity was found to be 0%.

On to `Cn1cc2c3c(c[nH]c3c1=O)CN(c1ccc(F)cc1F)c1ccc(CS(C)(=O)=O)cc1-2`, for which the Activity was found to be 0%.
